Results published in patent publication US20250281590A1, “IMMUNOGENIC COMPOSITIONS COMPRISING CONJUGATED ESCHERICHIA COLI SACCHARIDES AND USES THEREOF” (Pfizer Inc., priority 2024, published 2025).

Legend:
Experiment in all cases: IgG dLIA with pAb standards, NHP sera, CpG study (Example 5)
Type in all cases: in vivo, rhesus macaque
[1] = tested on: E. coli O-antigen serotype O1a; settings: 4 valent O-antigen SCP with CpG 1800 μg; dLIA standard (pAb/mAb) not specified; listed as CpG
Experimental: (§1) The 4-plex O-antigen IgG dLIA serology assay was completed as follows: The primate serology assay utilized the same O-antigen MagPlex®-C microspheres (Luminex) as the mouse serology assay described in Example 3, above. Microspheres were incubated with serially diluted NHP serum samples, controls, and human polyclonal serum standards overnight at 2-8° C. while shaking. In this case, bound serotype-specific IgG was detected with PE-conjugated goat anti-human IgG. Fcγ fragment-specific secondary antibody (Jackson Laboratories) and fluorescence was measured on the FlexMap 3D instrument ([…]). Human serum containing IgG to all four O-antigens was used as an internal standard for interpolating NHP serum IgG concentrations. […] Lower limit of quantification (LLOQ) was defined as 2 U/mL.
(§2) In this study, the adjuvanting effect of nucleotide adjuvant CpG 24555 on immunogenicity of E. coli O-antigen SCP glycoconjugates of serotypes O1a, O2, O6, and O25b was assessed in a NHP (Rhesus Macaques) model.
(§3) 20 male rhesus macaques were selected for this study. Three groups of Rhesus macaques were vaccinated with the 4 valent O-antigen SCP glycoconjugates including one group without CpG adjuvant, one group with CpG adjuvant and a lower dose of the 4 valent O-antigen SCP glycoconjugates, and one group with CpG adjuvant and a higher dose of 4 valent O-antigen SCP glycoconjugates. The no adjuvant control group, as well as the group with CpG adjuvant and the higher dose of glycoconjugates included 2 μg of serotypes O1a, O2, and O6, as well as 4 μg of serotype O25b. The group with CpG adjuvant and the lower dose of glycoconjugates included 0.5 μg of serotypes O1a, O2, and O6, as well as 1 μg of serotype O25b. Vaccination was administered at months 0, 2, and 6. Animals were bled prior to vaccination and at weeks 1, 2, 4, 6, 9, 10, 12, 25, and 26. 0.5 mL of vaccine formulation was injected intramuscularly (IM).
(§4) Geometric mean titers (GMTs) of IgG antibodies specific for each of the respective 0-antigen serotypes O1a, O2, O6, and O25b were quantified using a Luminex 4-plex dLIA assay. The 4-plex O-antigen IgG dLIA serology assay was completed as described in Example 4, above. Table 21 and 22, below, present data for IgG GMT titers for each of serotypes O1a, O2, O6, and O25b.

[2] = tested on: E. coli O-antigen serotype O25b; settings: 4 valent O-antigen SCP with CpG 1800 μg; after each vaccination; dLIA standard (pAb/mAb) not specified; listed as CpG
Experimental: as §1, §2, §3, §4

[3] = tested on: E. coli O-antigen serotype O2; settings: 4 valent O-antigen SCP with CpG 1800 μg, dLIA standard (pAb/mAb) not specified
Experimental: as §1, §2, §3, §4

[4] = tested on: E. coli O-antigen serotype O6; settings: 4 valent O-antigen SCP with CpG 1800 μg, dLIA standard (pAb/mAb) not specified
Experimental: as §1, §2, §3, §4

Question: CpG 24555 [CpG adjuvant] was tested. Which “Serotype O1a IgG titers, fold increase vs. unadjuvanted titers” value [1] did it give?
Answer: The value was “greater than twenty-fold increases”.

Question: What about the “Serotype O25b IgG titers, fold increase vs. unadjuvanted titers” value [2] of the same substance?
Answer: Its value is “greater than twenty-fold increases”.

Question: And the “Serotype O2 IgG titers, fold increase vs. unadjuvanted titers” value [3]?
Answer: The value was “less than 10 fold”.

Question: What about the “Serotype O2 IgG titers, fold increase vs. unadjuvanted titers” value ([3]; listed as CpG) of the same substance?
Answer: The value was “up to ten-fold increases”.

Question: And the “Serotype O6 IgG titers, fold increase vs. unadjuvanted titers” value [4]?
Answer: Its value is “less than 10 fold”.

Question: What about the “Serotype O6 IgG titers, fold increase vs. unadjuvanted titers” value ([4]; listed as CpG) of the same substance?
Answer: The value was “up to ten-fold increases”.
